According to patent publication US5763476A, “Sublingual or buccal pharmaceutical composition” (priority 1994, dated 1998):

How the values were obtained:
histamine = details: cited from earlier work
[1] = Cardiovascular side effects on sublingual or buccal administration; type: in vivo
[2] = Absorption from aqueous compositions kept under the tongue or in the mouth; type: in vivo; details: aqueous compositions kept under the tongue or in the mouth of a patient
human volunteers = assay: Phase I clinical studies, peroral administration; type: in vivo
serotonin = details: cited from earlier work

For CN1C[C@@H]2c3ccccc3Oc3ccc(Cl)cc3[C@H]2C1 (relative stereo) [trans-5-chloro-2-methyl-2,3,3a,12b-tetrahydro-1H-dibenz[2,3:6,7]oxepino[4,5-c]pyrrole], the Antihistamine activity (histamine) is listed as “antihistamine and antiserotonin activities”, the Cardiovascular side effects [1] is listed as “substantially less cardiovascular side effects” and the Absorption [2] is listed as “rapidly absorbed”. For the same molecule, the Cardiotoxic effects (human volunteers) was “serious cardiotoxic effects, e.g. postural hypotension and/or impairment of baroreceptor functioning, occurred” and the Antiserotonin activity (serotonin) was “antihistamine and antiserotonin activities”.
